Test system: rats of a collagen-induced arthritis model
Assay: Both-hindlimb edema suppression in rats of a collagen-induced arthritis model
Assay type: in vivo, Lewis female rats (LEW/Crj)
Conditions: solo administration; for Edema Index: mean ± standard error, control group 6.85 ± 0.33; for Percent edema suppression: vs control group
Experimental: The effect on suppressing both-hindlimb edema of 2-benzyl-5-(4-chlorophenyl)-6-[4-(methylthio)phenyl]-2H-pyridazin-3-one (synthesized through the aforementioned method) and that of tacrolimus (Prograf (injection: 5 mg), product of Fujisawa Pharmaceutical Co., Ltd.) were determined both in the cases of combined administration and solo administration through the following procedure (by use of rats of a collagen-induced arthritis model) (FDA, CBER, CDER, CDRH: Guidance for industry—Clinical development programs for drugs, devices, and biological products for the treatment of rheumatoid arthritis (RA)—. (1999)). Lewis female rats (LEW/Crj) (obtained from Charles River Laboratories Japan, Inc.) were employed as test animals.
For each 8-week-old LEW/Crj rat, the volume of a portion from the ankle to the toe tip of each hindlimb was measured by means of a plethysmometer for small animals (TK-101CMP, product of Unicom), and a total of the two volumes was employed as a volume of the hindlimbs (hereinafter referred to as both-hindlimb volume) at the start of the test (hereinafter referred to as Pre value). By use of the Pre value as an index, the rats were divided into groups which are alike from group to group, through one-parameter-based block randomization.
The collagen emulsion for sensitization employed for inducing arthritis in rats was prepared by homogenizing a 0.3% Type II collagen liquid (product of Collagen Research Center), adjuvant peptide (product of Peptide Institute, Inc.), and adjuvant incomplete Freund (product of DIFCO) by means of a Handy Micro Homogenizer (product of Microtec Nition) under cooling with ice. The thus-prepared emulsion was intracutaneously injected to 10 sites in the dorsum of each rat at 0.1 mL/site, to thereby initially sensitize the rat. Seven days after initial sensitization, the same emulsion (0.12 mL) was intracutaneously injected to the tail head of the rat for booster sensitization.
Administration of one drug or two drugs was carried out the day after initial sensitization to day 26. To the 2-benzyl-5-(4-chlorophenyl)-6-[4-(methylthio)phenyl]-2H-pyridazin-3-one solo administration group, the drug was orally administered twice; in the morning (9:00 to 11:00) and in the evening (15:30 to 17:30) at a dose of 3 mg/kg. To the tacrolimus sole administration group, the drug was orally administered once in the afternoon (11:30 to 13:30) at a dose of 0.1, 0.3, or 1 mg/kg. To the combined administration group (2-benzyl-5-(4-chlorophenyl)-6-[4-(methylthio)phenyl]-2H-pyridazin-3-one and tacrolimus), 2-benzyl-5-(4-chlorophenyl)-6-[4-(methylthio)phenyl]-2H-pyridazin-3-one was orally administered in the morning (9:00 to 11:00) and in the evening (15:30 to 17:30) at a dose of 3 mg/kg, and tacrolimus was orally administered in the afternoon (11:30 to 13:30) at a dose of 0.3 mg/kg.
14 days, 18 days, 22 days, and 26 days after initial sensitization, both-hindlimb volume was measured. Volume of both-hindlimb edema was calculated by subtracting the Pre value from the thus-measured value.
Table 1 and FIG. 1 show Edema Index of the groups of rats, the groups being the 2-benzyl-5-(4-chlorophenyl)-6-[4-(methylthio)phenyl]-2H-pyridazin-3-one solo administration group, the tacrolimus solo administration group, and the combined administration group. The Edema Index of each group is an average of the indices obtained from 6 to 12 rats ±a standard error. Percent edema suppression represents a value obtained from the relationship:
100×[(average both-hindlimb edema volume of the control group)−(average both-hindlimb edema volume of each administration group)]/(average both-hindlimb edema volume of the control group). Relative factor represents a ratio of (average both-hindlimb edema volume of each administration group)/(average both-hindlimb edema volume of the control group).

Question: Which results are given for `CSc1ccc(-c2nn(Cc3ccccc3)c(=O)cc2-c2ccc(Cl)cc2)cc1` [2-benzyl-5-(4-chlorophenyl)-6-[4-(methylthio)phenyl]-2H-pyridazin-3-one]?
Answer: Edema Index suppression effect (in words) (3 mg/kg): do not result in potent Edema Index suppression effects; Edema Index (3 mg/kg orally twice daily, day 1 to day 26 after initial sensitization, sum of both-hindlimb edema volumes at days 14, 18, 22, 26): 5.58 ± 0.63 mL; Relative factor (3 mg/kg orally twice daily, ratio of group average edema volume to control group): 0.81; Percent edema suppression (3 mg/kg orally twice daily): 19%

Question: Which results are given for `C=CC[C@@H]1/C=C(\C)C[C@H](C)C[C@H](OC)[C@H]2O[C@@](O)(C(=O)C(=O)N3CCCC[C@H]3C(=O)O[C@H](/C(C)=C/[C@@H]3CC[C@@H](O)[C@H](OC)C3)[C@H](C)[C@@H](O)CC1=O)[C@H](C)C[C@@H]2OC` [Tacrolimus, tacrolimus]?
Answer: Edema Index (0.1 mg/kg orally once daily, day 1 to day 26): 6.75 ± 0.31 mL; Relative factor (0.1 mg/kg orally once daily, ratio to control group): 0.99; Percent edema suppression (0.1 mg/kg orally once daily): 1%; Edema Index (0.3 mg/kg orally once daily, day 1 to day 26): 6.09 ± 0.30 mL; Relative factor (0.3 mg/kg orally once daily, ratio to control group): 0.89; Percent edema suppression (0.3 mg/kg orally once daily): 11%; Edema Index (1 mg/kg orally once daily, day 1 to day 26): 5.04 ± 0.20 mL; Relative factor (1 mg/kg orally once daily, ratio to control group): 0.74; Percent edema suppression (1 mg/kg orally once daily): 26%; Edema Index suppression effect (in words) (up to 1 mg/kg): do not result in potent Edema Index suppression effects

Reference: patent publication US20090131443A1, “METHOD FOR PREVENTION AND/OR TREATMENT OF RHEUMATOID ARTHRITIS” (Kowa Co., Ltd., priority 2005, published 2009)
